Counter-ions that a name gives are not always drawn. Like-named read-outs stand apart in the source and are kept apart here.
Experiments:
Assay type in all cases: biochemical
Human plasma [1] = experiment: Human plasma anticoagulation, prothrombin time (PT); details: concentration required to double the PT, linear extrapolation
Description: (§1) Dog plasma and rat plasma is obtained from conscious mixed-breed hounds (either sex, Hazelton-LRE, Kalamazoo, Mich., U.S.A.) or from anesthetized male Sprague-Dawley rats (Harlan Sprague-Dawley, Inc., Indianapolis, Ind., U.S.A.) by venipuncture into 3.8 percent citrate. Fibrinogen is prepared from in-date ACD human blood as the fraction I-2 according to previous procedures and specifications. […] Human fibrinogen is also purchased as 98 percent pure/plasmin free from American Diagnostica, Greenwich, Conn. Coagulation reagents ACTIN, Thromboplastin, and Human plasma are from Baxter Healthcare Corp., Dade Division, Miami, Fla. Bovine thrombin from Parke-Davis ([…], Mich.) is used for coagulation assays in plasma.
(§2) Coagulation assay procedures are as previously described. […] A CoAScreener coagulation instrument (American LABor, Inc.) is used for all coagulation assay measurements. The prothrombin time (PT) is measured by adding 0.05 mL saline and 0.05 mL Thromboplastin-C reagent to 0.05 mL test plasma. The activated partial thromboplastin time (APTT) is measured by incubation of 0.05 mL test plasma with 0.05 mL Actin reagent for 120 seconds followed by 0.05 mL CaCl2 (0.02M). The thrombin time (TT) is measured by adding 0.05 mL saline and 0.05 mL thrombin (10 NIH units/mL) to 0.05 mL test plasma. The compounds of Formula I are added to human or animal plasma over a wide range of concentrations to determine prolongation effects on the APTT, PT, and TT assays. Linear extrapolations are performed to estimate the concentrations required to double the clotting time for each assay.

Human Thrombin = Human Thrombin (Homo sapiens, UniProt P00734); experiment: Inhibition of amidase activity of thrombin (Kass)
Human plasma [2] = experiment: Human plasma anticoagulation, activated partial thromboplastin time (APTT); details: concentration required to double the APTT, linear extrapolation
Description: as §1, §2

Human plasma [3] = experiment: Human plasma anticoagulation, thrombin time (TT); details: concentration required to double the thrombin time, linear extrapolation
Description: as §1, §2

factor Xa = target: T1, factor Xa (Homo sapiens, UniProt P00742); experiment: Kass with factor Xa, chromogenic substrate; details: substrate N-Benzoyl-Ile-Glu-Gly-Arg-p-nitroanilide
T1 construct: Human factors X, Xa, IXa, XIa, and XIIa are purchased; purchased Enzyme Research Laboratories, South Bend, Ind
T1 sequence (P00742 235-488 limits assumed): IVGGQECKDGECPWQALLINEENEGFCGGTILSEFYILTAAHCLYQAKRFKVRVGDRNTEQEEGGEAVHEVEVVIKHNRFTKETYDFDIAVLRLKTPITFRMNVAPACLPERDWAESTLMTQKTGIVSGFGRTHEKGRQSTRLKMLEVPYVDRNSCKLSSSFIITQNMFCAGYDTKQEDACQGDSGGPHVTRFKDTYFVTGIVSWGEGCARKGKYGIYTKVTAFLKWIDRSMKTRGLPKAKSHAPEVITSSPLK
T1 sequence (P00742 41-179 partner limits assumed): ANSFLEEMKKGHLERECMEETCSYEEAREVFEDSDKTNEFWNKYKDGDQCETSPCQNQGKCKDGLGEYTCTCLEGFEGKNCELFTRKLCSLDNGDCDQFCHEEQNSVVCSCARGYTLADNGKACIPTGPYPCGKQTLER
Description: (§3) By substantially following the procedures described above for human thrombin, and using other human blood coagulation system serine proteases and proteases of the fibrinolytic system with the appropriate chromogenic substrates, identified below, selectivity of the compounds of the present invention with respect to the coagulation factor serine proteases and with respect to the fibrinolytic system serine proteases are evaluated as well as their substantial lack of interference with serine proteases of the fibrinolytic system. Thrombin inhibitors preferably should spare fibrinolysis induced by urokinase, tissue plasminogen activator (t-PA) and streptokinase. This would be important to the therapeutic use of such agents as an adjunct to streptokinase, t-PA or urokinase thrombolytic therapy and to the use of such agents as an endogenous fibrinolysis-sparing (with respect to t-PA and urokinase) antithrombotic agent. In addition to the lack of interference with the amidase activity of the fibrinolytic proteases, such fibrinolytic system sparing can be studied by the use of human plasma clots and their lysis by the respective fibrinolytic plasminogen activators.
(§4) Human factors X, Xa, IXa, XIa, and XIIa are purchased from Enzyme Research Laboratories, South Bend, Ind.; human urokinase from Leo Pharmaceuticals, Denmark; and recombinant activated Protein C (aPC) is prepared at Eli Lilly and Co. substantially according to U.S. Patent No. 4,981,952. Chromogenic substrates: N-Benzoyl-Ile-Glu-Gly-Arg-p-nitroanilide (for factor Xa); N-Cbz-D-Arg-Gly-Arg-p-nitroanilide (for factor IXa assay as the factor Xa substrate); Pyroglutamyl-Pro-Arg-p-nitroanilide (for Factor XIa and for aPC); H-D-Pro-Phe-Arg-p-nitroanilide (for factor XIIa); and Pyroglutamyl-Gly-Arg-p-nitroanilide (for urokinase); are purchased from KabiVitrum, Stockholm, Sweden, or from Midwest Biotech, Fishers, Ind. Bovine trypsin is purchased from Worthington Biochemicals, Freehold, N.J., and human plasma kallikrein from Kabi Vitrum, Stockholm, Sweden. Chromogenic substrate H-D-Pro-Phe-Arg-p-nitroanilide for plasma kallikrein is purchased from Kabi Vitrum, Stockholm, Sweden. N-Benzoyl-Phe-Val-Arg-p-nitroanilide, the substrate for human thrombin and for trypsin, is synthesized according to procedures described above for the compounds of the present invention, using known methods of peptide coupling from commercially available reactants or purchased from Midwest Biotech, Fishers, Ind.

Bovine trypsin = target: T2, Bovine trypsin (Bos taurus, UniProt P00760); experiment: Kass with trypsin, chromogenic substrate; details: substrate N-Benzoyl-Phe-Val-Arg-p-nitroanilide
T2 construct: Bovine trypsin is purchased; purchased Worthington Biochemicals, Freehold, N.J
T2 sequence (P00760 24-246): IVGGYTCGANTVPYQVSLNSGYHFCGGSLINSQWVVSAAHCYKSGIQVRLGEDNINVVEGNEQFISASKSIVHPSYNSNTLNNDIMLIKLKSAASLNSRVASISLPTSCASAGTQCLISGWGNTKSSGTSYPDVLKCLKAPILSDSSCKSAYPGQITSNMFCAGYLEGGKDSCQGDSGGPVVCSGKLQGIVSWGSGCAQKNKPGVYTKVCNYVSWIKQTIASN
Description: as §3, §4

Human plasmin = target: T3, Human plasmin (Homo sapiens, UniProt P00747); experiment: Kass with plasmin, chromogenic substrate; details: substrate H-D-Val-Leu-Lys-p-nitroanilide
T3 construct: Human plasmin is purchased; purchased Boehringer Mannheim, Indianapolis, Ind
T3 sequence (P00747 97-810): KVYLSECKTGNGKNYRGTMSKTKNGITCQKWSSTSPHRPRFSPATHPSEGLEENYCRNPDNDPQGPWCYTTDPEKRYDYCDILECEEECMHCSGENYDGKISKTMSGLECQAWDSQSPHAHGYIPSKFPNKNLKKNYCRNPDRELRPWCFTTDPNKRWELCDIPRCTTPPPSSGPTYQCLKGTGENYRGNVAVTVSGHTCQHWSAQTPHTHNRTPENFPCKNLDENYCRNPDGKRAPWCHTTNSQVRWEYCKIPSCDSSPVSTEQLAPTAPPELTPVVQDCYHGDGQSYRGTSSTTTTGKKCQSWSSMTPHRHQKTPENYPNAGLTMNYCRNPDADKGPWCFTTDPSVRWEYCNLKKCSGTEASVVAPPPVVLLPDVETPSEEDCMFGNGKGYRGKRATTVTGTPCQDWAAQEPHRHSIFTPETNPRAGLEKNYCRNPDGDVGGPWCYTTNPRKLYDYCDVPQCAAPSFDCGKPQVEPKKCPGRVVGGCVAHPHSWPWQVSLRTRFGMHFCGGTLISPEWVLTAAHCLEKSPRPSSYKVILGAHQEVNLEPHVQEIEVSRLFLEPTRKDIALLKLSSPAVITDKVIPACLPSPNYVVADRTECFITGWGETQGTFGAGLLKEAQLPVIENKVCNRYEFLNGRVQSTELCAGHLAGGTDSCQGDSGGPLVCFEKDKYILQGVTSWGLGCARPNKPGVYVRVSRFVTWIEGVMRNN
T3 sequence (P00747 97-580 partner limits assumed): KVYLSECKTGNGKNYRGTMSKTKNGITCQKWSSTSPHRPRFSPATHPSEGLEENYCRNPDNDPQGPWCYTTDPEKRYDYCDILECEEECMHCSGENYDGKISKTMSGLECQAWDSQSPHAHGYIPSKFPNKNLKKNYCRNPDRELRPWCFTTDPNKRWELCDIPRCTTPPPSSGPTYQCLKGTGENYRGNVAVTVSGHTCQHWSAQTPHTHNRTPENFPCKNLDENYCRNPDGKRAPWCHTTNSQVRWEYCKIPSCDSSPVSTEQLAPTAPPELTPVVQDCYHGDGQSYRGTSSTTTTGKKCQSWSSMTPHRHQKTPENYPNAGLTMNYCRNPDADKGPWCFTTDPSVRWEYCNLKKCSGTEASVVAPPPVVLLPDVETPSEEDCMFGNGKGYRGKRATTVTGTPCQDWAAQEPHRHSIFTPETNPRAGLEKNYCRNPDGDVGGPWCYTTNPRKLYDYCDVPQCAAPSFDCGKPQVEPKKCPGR
Description: as §3
Human plasmin is purchased from Boehringer Mannheim, Indianapolis, Ind.; nt-PA is purchased as single chain activity reference from American Diagnostica, Greenwich, Conn. modified-t-PA6 (mt-PA6) is prepared at Eli Lilly and Company by procedure known in the art (See, Burck, et al., J. Biol. Chem., 265, […] (1990). Plasmin chromogenic substrate H-D-Val-Leu-Lys-p-nitroanilide and tissue plasminogen activator (t-PA) substrate H-D-Ile-Pro-Arg-p-nitroanilide are purchased from Kabi Vitrum, Stockholm, Sweden.

[4] = mean over a range of concentrations, […]

| Molecule | Human Plasma Anticoagulation 2× Clotting time PT (Human plasma [1]) | Kass Human Thrombin (Human Thrombin; [4]) | Human Plasma Anticoagulation 2× Clotting time APTT (Human plasma [2]) | Human Plasma Anticoagulation 2× Clotting time TT (Human plasma [3]) | Kass Xa (factor Xa) | Kass Trypsin (Bovine trypsin) | Kass Plasmin (Human plasmin) | Kass Human Thrombin (Human Thrombin) |
| --- | --- | --- | --- | --- | --- | --- | --- | --- |
| N=C(N)Nc1cccc(CNC(=O)[C@@H]2CCCN2C(=O)[C@@H]2NCC[C@@H]3CCCC[C@@H]32)c1 [Example 40, D-1-Piq-Pro-m-NHCH2 C6 H4 NHC(NH)NH2.2HCl] | > 91,000 ng/mL | 0.03 × 10^6 (L/mole) | > 91,000 ng/mL | 35,100 ng/mL | < 0.001 × 10^6 (L/mole) | 0.01 × 10^6 (L/mole) | < 0.001 × 10^6 (L/mole) |  |
| N=C(N)c1ccc(CNC(=O)CN(CCc2ccccc2)C(=O)CNCC(=O)O)cc1 [Example 89, HOOCCH2 -Gly-N-C6 H5 CH2 CH2 Gly-p-NHCH2 C6 H4 C(NH)NH2.HCl] | 37,000 ng/mL | 0.14 × 10^6 (L/mole) | 51,000 ng/mL | 570 ng/mL | 0.071 × 10^6 (L/mole) |  |  |  |
| CCS(=O)(=O)N[C@H](Cc1ccccc1)C(=O)N1CCC[C@H]1C(=O)NCCc1ccc(C(=N)N)cc1 [Example 26, EtSO2 -D-Phe-Pro-p-NHCH2 CH2 --C6 H4 C(=NH)NH2.HCl] | 750 ng/mL | 13 × 10^6 (L/mole) | 870 ng/mL | 37 ng/mL | 0.01 × 10^6 (L/mole) | 0.21 × 10^6 (L/mole) | 0.01 × 10^6 (L/mole) |  |
| HOOCCH2 -D-hPhe-Pro-p-NHCH2 C6 H4 C(NH)NH2.HCl [Example 87] | 310 ng/mL | 30 × 10^6 (L/mole) | 260 ng/mL | 9 ng/mL | 2.5 × 10^6 (L/mole) |  |  |  |
| N=C(N)c1ccc(CNC(=O)[C@@H]2CCCN2C(=O)[C@@H](CCC2CCCCC2)NCC(=O)O)cc1 [Example 88, HOOCCH2 -D-hCha-Pro-p-NHCH2 C6 H4 C(NH)NH2.HCl] | 200 ng/mL | 410 × 10^6 (L/mole) | 100 ng/mL | 4 ng/mL | 3.9 × 10^6 (L/mole) |  |  |  |
| N=C(N)c1ccc(CNC(=O)[C@@H]2CCCN2C(=O)[C@H](NCC(=O)O)C2CCCCC2)cc1 [Example 86, HOOCCH2 -D-Chg-Pro-p-NHCH2 C6 H4 C(NH)NH2.HCl] | 180 ng/mL |  | 81 ng/mL | 4 ng/mL | 0.63 × 10^6 (L/mole) |  |  | 200 |
| N=C(N)Nc1ccc(CNC(=O)[C@@H]2CCCN2C(=O)[C@@H]2NCC[C@@H]3CCCC[C@@H]32)cc1 [Example 38, D-1-Piq-Pro-p-NHCH2 C6 H4 NHC(NH)NH2.2HCl] | 11,100 ng/mL | 1.1 × 10^6 (L/mole) | 6,100 ng/mL | 540 ng/mL | < 0.001 × 10^6 (L/mole) | 0.07 × 10^6 (L/mole) | < 0.001 × 10^6 (L/mole) |  |
| Nc1ccc(CNC(=O)[C@@H]2CCCN2C(=O)[C@@H](CC2CCCCC2)NCC(=O)O)c(F)c1 [Example 64, HO2 CCH2 -D-Cha-Pro-4-NHCH2 -3-F-C6 H3 NH2.HCl] | 650 ng/mL | 15 × 10^6 (L/mole) | 900 ng/mL | 23 ng/mL | 0.01 × 10^6 (L/mole) |  |  |  |
| CCC(CC)C(=O)N[C@@H](CCS(C)(=O)=O)C(=O)N1CCC[C@H]1C(=O)NCc1ccc(C(=N)N)cc1 [Example 91, (C2 H5)2 CHCO-Met(O2)-pro-p-NHCH2 C6 H4 C(NH)NH2.HCl] | 3,500 ng/mL | 3.6 × 10^6 (L/mole) | 3,000 ng/mL | 63 ng/mL | 0.007 × 10^6 (L/mole) |  |  |  |
| CCC(CC)C(=O)N[C@@H](CCC(=O)O)C(=O)N1CCC[C@H]1C(=O)NCc1ccc(C(=N)N)cc1 [Example 90, (C2 H5)2 CHCO-Glu-Pro-p-NHCH2 C6 H4 C(NH)NH2.HCl] | 14,600 ng/mL | 0.61 × 10^6 (L/mole) | 14,500 ng/mL | 330 ng/mL | 0.002 × 10^6 (L/mole) |  |  |  |
| CCS(=O)(=O)N[C@H](CC1CCCCC1)C(=O)N1CCC[C@H]1C(=O)NCc1ccc(N)nc1 [Example 84, EtSO2 -D-Cha-Pro-5-NHCH2 -2-aminopyridine.HCl] | 1,900 ng/mL | 2.9 × 10^6 (L/mole) | 1,500 ng/mL | 110 ng/mL |  | 0.07 × 10^6 (L/mole) |  |  |

From patent US5707966A, “Antithrombotic agents” (Eli Lilly and Company, priority 1995, dated 1998)
